The text below walks through data of patent publication US10239881B2, “RIPK2 inhibitors and method of treating cancer with same” (University Health Network, priority 2014, dated 2019).

What is called IC50 is the concentration at which inhibition is half-maximal.

In the assay the target is human RIPK2 kinase (Homo sapiens (Human), UniProt O43353). Kind of assay: RIPK2 inhibition assay (indirect ELISA). The format is biochemical. The conditions noted are these: His-RIPK2 0.6 nM, 6 μM ATP; read-out: RIPK2 IC50 range. On the procedure:
Active RIPK2 was purchased from Life Technologies as His-tagged of catalityc domain (amin acids 1-299) of human RIPK2 kinase expressed in insect cells. Amino terminal 6 histidine, sumo tagged human TTK (residues 1-275) was expressed in E. coli, and purified to >95% homogeneity by Ni^2+ agarose, gel filtration, and ion exchange chromatography.
RIPK2 activity was measured using an indirect ELISA detection system. His—RIPK2 (0.6 nM) was incubated in the presence of 6 μM ATP (Sigma cat # A7699), 20 mM Hepes, pH 7.5, 1 mM EGTA, 2.5 mM MgCl2, 2.5 mM MnCl2 and 0.01% Triton X-100 in a 96 well microtitre plate pre-coated with amino terminal 6 histidine, sumo tagged TTK (amino acid residues 1-275). The reaction was allowed to proceed for 30 minutes, followed by 5 washes of the plate with Wash Buffer (phosphate buffered saline supplemented with 0.2% Tween 20), and incubation for 30 minutes with a 1:3000 dilution of primary antibody (Cell Signaling cat #9381). The plate was washed 5 times with Wash Buffer, incubated for 30 minutes in the presence of secondary antibody coupled to horse radish peroxidase (BioRad cat #1721019, 1:3000 concentration), washed an additional 5 times with Wash Buffer, and incubated in the presence of TMB substrate (Sigma cat # T0440). The colorimetric reaction was allowed to continue for 5 minutes, followed by addition of stop solution (0.5 N H2SO4), and quantified by detection at 450 nm with either a monoChromatic or filter based plate reader (Molecular Devices M5 or Beckman DTX880, respectively).
Compound inhibition was determined at either a fixed concentration (10 μM) or at a variable inhibitor concentration (typically 50 μM to 0.1 μM in a 10 point dose response titration). Compounds were pre-incubated in the presence of enzyme for 15 minutes prior to addition of ATP and the activity remaining quantified using the above described activity assay. The % Inhibition of a compound was determined using the following formula; % Inhibition=100×(1−(experimental value−background value)/(high activity control−background value)). The IC50 value was determined using a non-linear 4 point logistic curve fit (XLfit4, IDBS) with the formula; (A+(B/(1+((x/C)^D)))), where A=background value, B=range, C=inflection point, D=curve fit parameter.
(In general: ELISA stands for enzyme-linked immunosorbent assay.)

human RIPK2 kinase, sequence (O43353 1-299): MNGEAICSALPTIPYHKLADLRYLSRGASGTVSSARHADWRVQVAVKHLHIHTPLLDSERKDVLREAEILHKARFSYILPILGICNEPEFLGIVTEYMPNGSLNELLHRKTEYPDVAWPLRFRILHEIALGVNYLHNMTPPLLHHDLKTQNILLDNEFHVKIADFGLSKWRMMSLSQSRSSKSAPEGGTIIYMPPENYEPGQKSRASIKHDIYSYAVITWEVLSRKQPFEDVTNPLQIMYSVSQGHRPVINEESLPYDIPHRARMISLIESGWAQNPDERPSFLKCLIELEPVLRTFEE

As to `c1ccc(Nc2ncc3[nH]c(-c4ccccc4)cc3n2)cc1` [Example A1, N,6-diphenyl-5H-pyrrolo[3,2-d]pyrimidin-2-amine], the IC50 was above 0.5 µM.

As for `Cc1nc(Nc2ncc3[nH]c(-c4ccccc4C)cc3n2)cc(N2CCN(CCO)CC2)n1` [Example A5, 2-(4-(2-methyl-6-((6-(o-tolyl)-5H-pyrrolo[3,2-d]pyrimidin-2-yl)amino)pyrimidin-4-yl)piperazin-1-yl)ethanol], the half-maximal inhibitory concentration (IC50) is above 0.5 µM.

For `CN1CCN(c2cccc(Nc3ncc4[nH]c(C5CCCC5)cc4n3)c2)CC1` [Example A10, 6-cyclopentyl-N-(3-(4-methylpiperazin-1-yl)phenyl)-5H-pyrrolo[3,2-d]pyrimidin-2-amine], the IC50 was above 0.5 µM.

For the compound `CN1CCN(c2cccc(Nc3ncc4[nH]c(-c5ccsc5)cc4n3)c2)CC1` [Example A11, N-(3-(4-methylpiperazin-1-yl)phenyl)-6-(thiophen-3-yl)-5H-pyrrolo[3,2-d]pyrimidin-2-amine], the IC50 is at most 0.1 µM.

As to `c1cc(Nc2ncc3[nH]c(C4CCOCC4)cc3n2)cc(N2CCOCC2)c1` [Example A14, N-(3-morpholino-phenyl)-6-(tetrahydro-2H-pyran-4-yl)-5H-pyrrolo[3,2-d] pyrimidin-2-amine], the concentration for half-maximal inhibition (IC50) is above 0.5 µM.

Turning to `Cc1ccccc1-c1cc2nc(Nc3ccc(CN4CCOCC4)cc3)ncc2[nH]1` [Example A15, N-(4-(morpholino-methyl)phenyl)-6-(o-tolyl)-5H-pyrrolo[3,2-d] pyrimidin-2-amine], the IC50 was at most 0.1 µM.

Regarding `OCCN1CCN(c2cccc(Nc3ncc4[nH]c(-c5ccccc5Cl)cc4n3)c2)CC1` [Example A16, 2-(4-(3-((6-(2-chlorophenyl)-5H-pyrrolo[3,2-d]pyrimidin-2-yl)amino)phenyl)piperazin-1-yl) ethanol], the half-inhibitory concentration (IC50) was at most 0.1 µM.

For `Cc1ccccc1-c1cc2nc(Nc3ccc(N4CCN(C)CC4)cc3)ncc2[nH]1` [Example A17, N-(4-(4-methylpiperazin-1-yl)phenyl)-6-(o-tolyl)-5H-pyrrolo[3,2-d]pyrimidin-2-amine], the IC50 was at most 0.1 µM.

For `Cc1ccccc1-c1cc2nc(Nc3ccc(CN4CCN(C)CC4)cc3)ncc2[nH]1` [Example A18, N-(4-((4-methylpiperazin-1-yl)methyl)phenyl)-6-(o-tolyl)-5H-pyrrolo[3,2-d] pyrimidin-2-amine], the IC50 was at most 0.1 µM.

For the compound `Cc1ccccc1-c1cc2nc(NCCCN3CCOCC3)ncc2[nH]1` [Example A19, N-(3-morpholinopropyl)-6-(o-tolyl)-5H-pyrrolo[3,2-d]pyrimidin-2-amine], the half-maximal inhibitory concentration (IC50) is above 0.5 µM.

Take `Clc1ccccc1-c1cc2nc(Nc3cccc(N4CCOCC4)c3)ncc2[nH]1` [Example A20, 6-(2-chloro-phenyl)-N-(3-morpholino-phenyl)-5H-pyrrolo[3,2-d]pyrimidin-2-amine]: the half-maximal inhibitory concentration (IC50) was at most 0.1 µM.

On to `Cc1ccccc1-c1cc2nc(N[C@H]3CC[C@@H](O)CC3)ncc2[nH]1` [Example A21, (1r,4)-4-((6-(o-tolyl)-5H-pyrrolo[3,2-d]pyrimidin-2-yl)amino) cyclohexanol], for which the IC50 is 0.1 to 0.5 µM.

Take `Cc1ccccc1-c1cc2nc(N[C@H]3CC[C@@H](O)CC3)ncc2[nH]1` [Example A22, (1s,4s)-4-((6-(o-tolyl)-5H-pyrrolo[3,2-d]pyrimidin-2-yl)amino) cyclohexanol]: the 50% inhibitory concentration (IC50) was above 0.5 µM.

On to `Cc1ccccc1-c1cc2nc(NC3CCOCC3)ncc2[nH]1` [Example A23, N-(tetrahydro-2H-pyran-4-yl)-6-(o-tolyl)-5H-pyrrolo[3,2-d]pyrimidin-2-amine], for which the IC50 was above 0.5 µM.

With `Cc1ccccc1-c1cc2nc(NCC3CCOCC3)ncc2[nH]1` [Example A24, N-((tetrahydro-2H-pyran-4-yl)methyl)-6-(o-tolyl)-5H-pyrrolo[3,2-d]pyrimidin-2-amine], the IC50 fell in the range of 0.1 to 0.5 µM.

`COc1ccccc1-c1cc2nc(Nc3cccc(N4CCOCC4)c3)ncc2[nH]1` [Example A25, 6-(2-methoxy-phenyl)-N-(3-morpholino-phenyl)-5H-pyrrolo[3,2-d] pyrimidin-2-amine]: the 50% inhibitory concentration (IC50) is 0.1 to 0.5 µM.
